Data reported in PMC8623215, “Zhaoshumycins A and B, Two Unprecedented Antimycin-Type Depsipeptides Produced by the Marine-Derived Streptomyces sp. ITBB-ZKa6” (Marine Drugs, 2021).

System: MCF7 human breast cancer cell line
Test: Cytotoxic activity test, MTT method, MCF7 cells
Format: cell-based
Conditions: for inhibition rate: compound at 50 µM, dissolved in DMSO
Source text: Dimethyl sulfoxide (DMSO) was used to dissolve the tested compounds.

neoantimycin D [Compound 5]
inhibition rate: 91.08%
cytotoxic activity (in words) (preliminary in vitro test): weak cytotoxic activity

neoantimycin E [Compound 6]
inhibition rate: 90.53%
